Experimental data reported in patent US8575089B2, “Composition for preventing or treating inflammation” (University-Industry Cooperation Group of Kyung Hee, priority 2009, dated 2013).
Where no end group is shown, it is not given here.

Tests used:
[1] = Streptozotocin-induced Type I diabetes: blood glucose level and weight; assay type: in vivo, ICR mouse; details: for blood glucose level: FIG. 13
Description: Specifically, 5 nmole/kg of SP dissolved in a physiological saline was injected to a tail vein of ICR mouse (8 weeks, sex; male, n=10, Average Weight: 30 g), and then STZ (Sigma, USA) was intraabdominally injected. Streptozotocin was daily injected intraabdominally for two days, and SP was intravenously injected at the same concentration for five days. Only streptozotocin was injected for the control; after one week, blood glucose level was checked to confirm induction of diabetes; then SP was intravenously injected for five days from seven days after STZ injection.
Blood glucose level and weight were investigated. One drop of blood was taken from a tail vein of mouse by one time per 2-3 days, and a blood glucose level was measured by using a glucometer (Roche, Switzerland) and a weight was measured.

pancreas beta cells = assay: Streptozotocin-induced Type I diabetes: insulin IHC staining of pancreas; assay type: in vivo, ICR mouse
leukocytes in blood = assay: Corneal epithelial burn model: number of leukocytes in blood; assay type: in vivo, New Zealand white rabbit; details: rabbit, alkali burn of cornea; 5 nmole/kg SP i.v. twice; after three days after burning; vs continuously increased without SP; FIG. 6
Description: (§1) Ketalar (50 mg/ml, Yuhan Corporation) and Rompun (23.32 mg (Xylazine hydrochloride)/ml, Bayer Korea Corporation) were mixed in a rate of 2:1, and then total 900 μl (Ketalar 600 μl: Rompun 300 μl) was injected into muscles of rabbits (New Zealand white rabbit, Male, 2.5 kg, n=4). After the intramuscular injection, 300 μl (Ketalar 200 μl: Rompun 100 μl) of the same anesthetic drug was injected in the rabbit's ear vein.
A 6 mm paper disc fully wetted by 1N NaOH was contacted to a limbus part of rabbit's cornea for 10 seconds. After alkali burning, corneal epithelium was removed in a size of the paper disc. The rabbit's eyes were quickly washed with a physiological saline immediately after alkali burning. At the same time, 5 nmole/kg of SP dissolved in a physiological saline was intravenously injected, and then after 24 hours, was injected once more (immediately after burning and at 24 hours after burning). For the control, PBS with the same volume was injected (injection Volume: 1 ml). […]
2 ml of the whole 10 ml was used for counting blood cells and the number of leukocytes was analyzed in Neodin (Company for analysis of blood cells). Concretely, 2 ml of blood was added to a vial including EDTA; it was well mixed; then the whole leukocyte level was analyzed in an automatic analyzer (SYSMEX XE-2100 automatic analyzer from SYSMEX Corporation [Japan]); and then the results were shown in FIG. 6.

[2] = tested on: hematopoietic stem cells in blood; assay: Corneal epithelial burn model: HSC-CFU assay of blood cells; assay type: in vivo, New Zealand white rabbit; details: rabbit, alkali burn of cornea; 5 nmole/kg SP i.v. immediately and 24 hours after burning; without SP peak at five days; FIG. 5
Description: as §1
(§2) A 6 mm paper disc fully wetted by 1N NaOH was contacted to a limbus part of rabbit's cornea for 10 seconds. After alkali burning, corneal epithelium was removed in a size of the paper disc. The rabbit's eyes were quickly washed with a physiological saline immediately after alkali burning. At the same time, 5 nmole/kg of SP dissolved in a physiological saline was intravenously injected, and then after 24 hours, was injected once more (immediately after burning and at 24 hours after burning). For the control, PBS with the same volume was injected (injection Volume: 1 ml).
(§3) Peripheral blood was collected from ear veins in 10 ml at one, three, five and seven days after alkali burning. […]
1×10^4 cells among the whole cells was used for HSC-CFU assay. […] The cells were cultured in the media for 2 weeks (5% CO2, 37° C.), the number of colonies was counted by using a microscope (Leica) and then the results were shown in FIG. 5.

[3] = tested on: mononuclear cells in blood; assay: Corneal epithelial burn model: number of mononuclear cells in blood; assay type: in vivo, New Zealand white rabbit; details: rabbit, alkali burn of cornea; 5 nmole/kg SP i.v. immediately and 24 hours after burning; vs continuously increased without SP; FIG. 4
Description: as §1, §2, §3
The blood obtained from the above step was diluted twice with PBS, and then carefully put on Ficoll in a tube. […] Then, after adding 30 ml of PBS and centrifuging (washing step), the number of cells was counted to confirm the number of cells per 1 ml and then the results were shown in FIG. 4.

For “Substance-P (RPKPQQFFGLM; not fully specified; ends and bridges not checked; UniProt P20366 58-68, looked up)”, the blood glucose level ([1]; STZ/SP-injected group: 5 nmole/kg SP i.v. for five days at the same time as STZ) was “maintained in normal state”, the weight ([1]; STZ/SP-injected group: 5 nmole/kg SP i.v. for five days at the same time as STZ, FIG. 14) was “maintained in normal state” and the blood glucose level ([1]; STZ/after SP-injected group: SP i.v. for five days from seven days after STZ, after inducing diabetes) was “decreased in the short run”. The diabetes lesion (pancreas beta cells; STZ-induced diabetes, SP treated after inducing diabetes) was “becomes weak”, the “progress of Type I diabetes” value (pancreas beta cells; STZ-induced diabetes, SP treated when diabetes was induced) was “inhibits” and the “death of beta cells secreting insulin” value (pancreas beta cells; STZ-induced diabetes, mice sacrificed at 11 weeks, FIG. 12) was “inhibited”. For the same substance, the “insulin secretion (Insulin IHC staining of pancreas)” value (pancreas beta cells; group with injecting SP, mice sacrificed at 11 weeks, vs significantly low with only STZ, FIG. 12) was “high”, the “number of leukocytes in blood (increase % based on Day 0-level)” value (leukocytes in blood) was “sharply decreased” and the “number of HSC (HSC-CFU colonies) in blood” value [2] was “increased at early stage and then decreased immediately three days after injection”. For the same substance, the “total number of mononuclear cells per 1 ml blood” value [3] was “decreased at seven days”.
